In patent US4985433A, “2-amino-7-(pyridinylmethyl)-3H,5H-pyrrolo[3,2-d]pyrimidin-4-ones and pharmaceutical uses and compositions containing the same” (BioCryst, Inc., priority 1989, dated 1991) one finds plasma inosine data, which are given here for one compound.

SMILES strings stand for the structures.

This assay concerns plasma inosine. Nature of the assay: Plasma inosine after intraperitoneal injection in Lewis Rats (HPLC of plasma extract). It is filed as in vivo. The note with it: intraperitoneal injection in aqueous carrier with ten percent DMSO, 30 mg twice per day, versus vehicle controls, plasma taken at specific times after administration. Here is the method:
A pharmaceutical composition for intraperitoneal injection is prepared for testing the compound (IA). An intraperitoneal injection solution containing the compound of Example 8 is dissolved in an aqueous carrier that contains ten percent DMSO.
The compound (IA) is intraperitoneally injected into Lewis Rats via the test composition of Example 21 to provide 30 mg of the compound (IA), with an injection given twice per day. Controls are used, which receive only the vehicle. At specific times after administration, the animals are sacrificed and plasma samples are prepared. The plasma is extracted with cold 0.5N HClO4 and neutralized with solid NH4 HCO3. After removal of perchlorate salts, the extract is subjected to HPLC on a reversed phase column (Spherisorb ODSI).
Compounds prepared as in Examples 10-20 are each made into a pharmaceutical formulation in accordance with the preparation of Example 21 and the resultant injectable solutions are tested in accordance with the procedure of Example 22.

Take `Nc1nc2c(Cc3cccnc3)c[nH]c2c(=O)[nH]1` [compound (IA), 2-amino-7-(3-pyridinylmethyl)-3H,5H-pyrrolo[3,2-d]pyrimidin-4-one]: the plasma inosine entry is reported as “significant increase”.
